Test results reported in patent US11168047B2, “Cocrystal of 2-[(1R,6R)-6-isopropenyl-3-methylcyclohex-2-en-1-yl]-5-pentylbenzene-l,3-diol” (ENANTIA, S.L., priority 2017, dated 2021).

Key:
[1] = in humans; cited from earlier work
[2] = open vial, 40° C. and 75±5% relative humidity
Description: The aim of the study is to evaluate the stability of cocrystal Form I of the present invention.
Cocrystal Form I of the present invention obtained by the process disclosed in section 1.1.B.1.
Cocrystal Form I (55 mg) is stored in an open vial and exposed to accelerated stability conditions (40° C. and 75±5% relative humidity) according to ICH guidelines (Guidance for Industry Q1A(R2) Stability Testing of New Drug Substances and Products—available on the website http://www.ich.org/products/guidelines/quality/quality-single/article/stability-testing-of-new-drug-substances-and-products.html on Aug. 4, 2017).

| SMILES | oral bioavailability [1] | stability (solid form) [2] |
| --- | --- | --- |
| C=C(C)[C@@H]1CCC(C)=C[C@H]1c1c(O)cc(CCCCC)cc1O [CBD, 2-[(1R,6R)-6-isopropenyl-3-methylcyclohex-2-en-1-yl]-5-pentylbenzene-1,3-diol] | 6-33% | – |
| C=C(C)[C@@H]1CCC(C)=C[C@H]1c1c(O)cc(CCCCC)cc1O.O=C(O)[C@@H]1CCCN1 [cocrystal Form I, cocrystal of 2-[(1R,6R)-6-isopropenyl-3-methylcyclohex-2-en-1-yl]-5-pentylbenzene-1,3-diol with L-proline] | – | remained stable for at least three weeks |
